What all share (assay): DTP human tumour cell line panel, 48 h
Experiment [1] has as its system IGROV1 ovarian.
Experiment [2] relates to SK-MEL-2 melanoma.
For experiment [3], the system named is UACC-257 melanoma.
For experiment [4], the system named is CCRF-CEM leukemia.
The test system of experiment [5] is A498 renal.
For experiment [6], the system named is SF-295 CNS.
Experiment [7] deals with MCF7 breast.
Experiment [8] has as its system COLO 205 colon.
The subject of experiment [9] is SNB-75 CNS.
Experiment [10] has as its system TK-10 renal.

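48-hour exposure; five concentrations; linearly interpolated endpoints. Abbreviation: GI50, concentration required for 50% inhibition of growth. TGI: concentration producing complete growth inhibition.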

With `COc1ccc(-c2[nH]nc(N)c2-c2cc(OC)c(OC)c(OC)c2)cc1`, the GI50 (usually the concentration that inhibits growth by half) is 0.0591 µM in experiment [1]; 0.0379 µM in experiment [2]; 8.03 µM in experiment [3]; 0.0325 µM in [4]; 0.021 µM in [5]; 0.0248 µM in [6]. Also, the GI50 in experiment [7] was 0.03 µM; in [8] it was 0.0331 µM. The TGI (usually the concentration giving total growth inhibition) is 20.4 µM in experiment [1]; > 100 µM in [2]; > 100 µM in [3]; 0.0832 µM in experiment [5]; > 100 µM in experiment [6]; > 100 µM in [7]. In addition, the TGI in experiment [8] amounted to 0.16 µM.
Turning to `NCCSC(c1ccccc1)(c1ccccc1)c1ccccc1`, the GI50 in experiment [1] was 1.25 µM; in experiment [2] it was 1.18 µM; in [3] it was 1.13 µM; in experiment [4], 1.85 µM; in [9], 1.73 µM; in experiment [5], 1.03 µM. The GI50 is 0.967 µM in [6], 0.354 µM in experiment [7] and 0.435 µM in experiment [8]. The TGI in [1] came to 8.32 µM; in experiment [2], 2.72 µM; in experiment [3] it was 2.68 µM; in experiment [4], 6 µM; in experiment [9], 5.31 µM; in [5], 8.39 µM. The TGI in [6] was 2.76 µM; in [7], 1.78 µM; in [8] it was 1.69 µM.
With `COc1ccc(-c2cn(-c3cc(OC)c(OC)c(OC)c3)c(=O)[nH]2)cc1OC`, the GI50 is > 100 µM in experiment [1]; > 100 µM in experiment [2]; > 100 µM in experiment [3]; > 100 µM in experiment [4]; 71.7 µM in [9]; 80.3 µM in experiment [5]. Moreover, the GI50 in experiment [10], in experiment [6], in experiment [7] and in [8] was > 100 µM in each case. In addition, the TGI in [1], in experiment [2], in experiment [3], in [4], in [9] and in experiment [5] was > 100 µM each time. In addition, the TGI in [10], in [6], in experiment [7] and in experiment [8] was > 100 µM each time.
For the molecule `CC(=O)N[C@@H](Cc1ccc(OP(=O)(O)O)cc1)C(=O)N[C@H]1CCC(=O)N2CCC[C@@H](C(=O)NCc3ccccc3)N2C1=O`, the GI50 in experiment [1], in experiment [2], in [3], in [4], in experiment [9] and in experiment [5] was > 25 µM throughout. The GI50 in experiment [10], in experiment [6], in [7] and in experiment [8] was > 25 µM in each case. Further, the concentration for total growth inhibition (TGI) in [1], in experiment [2], in experiment [3], in experiment [4], in experiment [9] and in experiment [5] was > 25 µM in each case. Further, the TGI in [10], in experiment [6], in [7] and in experiment [8] was > 25 µM in each case.
Turning to `N#CC1=C(N)Oc2c(sc3c(Br)cccc23)C1c1ccc(Cl)cc1` (centres undefined), the GI50 in experiment [1] was 0.787 µM; in [2], 0.672 µM; in experiment [3], 1.73 µM; in experiment [4] it was 0.368 µM; in experiment [9], 0.478 µM; in experiment [5], 0.47 µM. The GI50 in experiment [10] was 3.47 µM; in [6], 0.276 µM; in experiment [7] it was 0.295 µM; in experiment [8], 0.774 µM. The TGI in experiment [1] turned out to be 4.35 µM; in experiment [2], 12.3 µM; in experiment [3] it was 22.7 µM; in [4] it was 2.36 µM; in experiment [9] it was 9.41 µM; in experiment [5], 11 µM. For the same molecule, the TGI in experiment [10] was 12.8 µM; in experiment [6], 0.869 µM; in experiment [7], 5.07 µM; in experiment [8], 2.72 µM.
For `COc1cc(CCNC(=O)OC(C)(C)C)c2c(c1OC)SSSSS2`, the GI50 in experiment [1] was 2.2 µM; in experiment [2], 2.45 µM; in experiment [3], 2.93 µM; in experiment [4], 5.34 µM; in [9], 2.27 µM; in experiment [5], 1.6 µM. In addition, the GI50 was 2.63 µM in experiment [10], 2.76 µM in [6], 1.77 µM in experiment [7] and 2.19 µM in [8]. For the same molecule, the TGI in [1] came to 4.63 µM; in experiment [2], 5.68 µM; in experiment [3] it was 5.48 µM; in [4], 65.2 µM; in experiment [9], 4.56 µM; in experiment [5] it was 3.09 µM. Besides, the TGI in experiment [10] was 5.5 µM; in experiment [6], 6.43 µM; in experiment [7] it was 5.06 µM; in experiment [8] it was 4.35 µM.
With `Cc1[nH]nc2ncc(C(=O)N3CCC[C@H]3c3ccc(Cl)cc3)cc12`, the GI50 in [1] is 66.1 µM; in [2], > 100 µM; in experiment [3], > 100 µM; in experiment [4], 36.1 µM; in experiment [9] it was 84.4 µM; in experiment [5], 32.5 µM. Besides, the figures for the GI50 in [10], in [6] and in experiment [7] were 94.2 µM, 63.5 µM and 41.6 µM, respectively. Also, the TGI in [1], in experiment [2], in [3], in experiment [4], in experiment [9] and in [5] was > 100 µM throughout. Also, the TGI in [10], in experiment [6] and in experiment [7] was > 100 µM throughout.
On to `O=C(c1ccccc1)c1nc2ccc(C(F)(F)F)cc2nc1N1CCN(c2ccccc2)CC1`, for which the GI50 was 43.9 µM in [1]; 48 µM in experiment [2]; 94.9 µM in [3]; 21 µM in experiment [4]; 27.9 µM in experiment [5]; 30.7 µM in experiment [10]. Besides, the GI50 is 42.8 µM in experiment [6], 48.2 µM in experiment [7] and 18.9 µM in experiment [8]. The total growth inhibition concentration (TGI) in experiment [1] was > 100 µM; in experiment [2] it was > 100 µM; in [3], > 100 µM; in experiment [4] it was > 100 µM; in experiment [5], 68.6 µM; in [10], 74.7 µM. For the same molecule, the TGI is > 100 µM in experiment [6], > 100 µM in [7] and 51.9 µM in experiment [8].

(Values after PubChem BioAssay (NCI).)
